In patent EP1075467B1, “PYRAZOLE DERIVATIVES AS P-38 MAP KINASE INHIBITORS” (F. Hoffmann-La Roche AG, priority 1998, dated 1999):
Where a name gives a salt, the structure may show the parent alone. Read-outs that look alike come from different tables or passages of the source.

Columns and labels:
[1] = test system: TNF-α Production In THP1 Cells; test: Inhibition of LPS-induced TNF-α production in THP1 cells, in vitro assay; format: cell-based, human; conditions: THP-1 cells, LPS 0.5 µg/ml, 2 h, TNF-α in supernatant by ELISA, read-out: IC50 (concentration corresponding to half-maximal reduction in 450 nm absorbance), TNF-α release
Method: The ability of the compounds of this invention to inhibit the TNF-α release was determined using a minor modification of the methods described in Blifeld, C. et al. Transplantation, Vol. 51(2), 498-503, (1991). THP-1 cells were suspended in culture medium [RPMI (Gibco-BRL, Gailthersburg, MD) containing 15% fetal bovine serum, 0.02 mM 2-mercaptoethanol], at a concentration of 2.5 x 10^6 cells/ml and then plated in 96 well plate (0.2 ml aliquots in each well). Test compounds were dissolved in DMSO and then diluted with the culture medium such that the final DMSO concentration was 5%. 20 μl aliquots of test solution or only medium with DMSO (control) were added to each well. The cells were incubated for 30 min., at 37 °C. LPS (Sigma, St. Louis, MO) was added to the wells at a final concentration of 0.5 μg/ml, and cells were incubated for an additional 2 h. At the end of the incubation period, culture supernatants were collected and the amount of TNF-α present was determined using an ELISA assay as described below. The amount of human TNF-α present was determined by a specific trapping ELISA assay using two anti-TNF-α antibodies (2TNF-H22 and 2TNF-[…]) described in Reimund, J. M., et al. GUT. Vol. 39(5), 684-689 (1996). Polystyrene 96-well plates were coated with 50 μl per well of antibody 2TNF-H22 in PBS (10 μg/ml) and incubated in a humidified chamber at 4 °C overnight. The plates were washed with PBS and then blocked with 5% nonfat-dry milk in PBS for 1 hour at room temperature and washed with 0.1% BSA (bovine serum albumin) in PBS. TNF standards were prepared from a stock solution of human recombinant TNF-α (R&D Systems, Minneapolis, MN). The concentration of the standards in the assay began at 10 ng/ml followed by 6 half log serial dilution's. […] Optical density of the sample and the reference were read at 450 nm and 650 nm, respectively. TNF-α levels were determined from a graph relating the optical density at 450 nm to the concentration used. The IC50 value was defined as the concentration of the test compound corresponding to half-maximal reduction in 450 nm absorbance. […]

TNF-α Production In Rats = test: Inhibition of LPS-induced TNF-α production in rats, in vivo assay; set-up: species or system Female Sprague-Dawley rats; conditions: dosed orally at 30 mg, LPS 50 µg/kg intraperitoneally after 30 min, serum TNF-α 1.5 h later by ELISA
Method: Female Sprague-Dawley rats weighing 110-140 grams (Charles River, Hollister, CA) were acclimated for one week. Groups containing 8 […] each were dosed orally either with the test compounds dissolved in an aqueous vehicle containing 0.9% sodium chloride, 0.5% sodium carboxymethyl-cellulose, 0.4% polysorbate 80, 0.9% benzyl alcohol (CMC vehicle) or only vehicle (control group). After 30 min., the […] were injected intraperitoneally with 50 µg/kg of LPS (Sigma, St. Louis, MO).

IC50 ([1]; Homo sapiens) [nM] | SMILES | % Inhibition (TNF-α content in the test group relative to the vehicle treated group) (TNF-α Production In Rats) [%] | other results
1040 | Nc1c(C(=O)c2cccc(CCCN3CCOCC3)c2)cnn1-c1ccc(F)cc1 [compound 6, 5-Amino-1-(4-fluorophenyl)-4-[3-(3-morpholin-4-ylpropyl)benzoyl]pyrazole hydrochloride] | – | –
510 | Nc1c(C(=O)c2cccc(CCS(N)(=O)=O)c2)cnn1-c1ccc(F)cc1 [compound 50, 5-Amino-4-[3-(2-aminosulfonylethyl)benzoyl]-1-(4-fluorophenyl)pyrazole] | – | –
– | CNC(=O)COc1cccc(C(=O)c2cnn(-c3ccc(F)cc3)c2N)c1 [compound 34, 5-Amino-1-(4-fluorophenyl)-4-[3-(methylaminocarbonylmethyloxy)-benzoyl]pyrazole] | 75 | –
– | Nc1c(C(=O)c2cccc(C#CCN3CCOCC3)c2)cnn1-c1ccc(F)cc1 [compound 3, 5-Amino-1-(4-fluorophenyl)-4-[3-{3-(morpholin-4-yl)prop-1-ynyl}benzoyl]pyrazole] | 96 | –
– | CN1CCN(C(=O)COc2cccc(C(=O)c3cnn(-c4ccc(F)cc4)c3N)c2)CC1 [compound 38] | – | IC50 [1]: 690 nM
